Reference: patent US7855212B2, “Pyridinyl acetonitriles” (Merck Serono SA, priority 2003, dated 2010)

These molecules were tested against human GSK3 beta (Homo sapiens, UniProt P49841) (assay: GSK3β in vitro assay (33P phosphorylation of phospho GS2 peptide)). Settings: in vitro potency on human GSK3 beta; read-out: IC50 (μM) GSK3beta.
Assay type: biochemical
Procedure: GSK3β Assay (see Bioorg. Med. Chem. Lett by Naerum et al. 12 p. 1525-1528 (2002))
In a final reaction volume of 25 μl, GSK3β (h) (5-10 mU) is incubated with 8 mM MOPS pH 7.0, 0.2 mM EDTA, 20 μM […](p)EDEEE (being the GSK3 substrate; a phospho GS2 peptide), 10 mM Mg Acetate and [γ-^33P-ATP] (Specific activity approx. 500 cpm/pmol, concentration as required). The reaction is initiated by the addition of Mg^2+ [γ-^33P-ATP]. After incubation for 40 minutes at room temperature, the reaction is stopped by the addition of 5 μl of a 3% phosphoric acid solution. 10 μl of the reaction is then spotted onto a P30 filtermat and washed three times for 5 minutes in 50 mM phosphoric acid and once in methanol prior to drying and the degree of phosphorylation of the substrate is determined by scintillation counting.

Sequence of human GSK3 beta (P49841 whole entry): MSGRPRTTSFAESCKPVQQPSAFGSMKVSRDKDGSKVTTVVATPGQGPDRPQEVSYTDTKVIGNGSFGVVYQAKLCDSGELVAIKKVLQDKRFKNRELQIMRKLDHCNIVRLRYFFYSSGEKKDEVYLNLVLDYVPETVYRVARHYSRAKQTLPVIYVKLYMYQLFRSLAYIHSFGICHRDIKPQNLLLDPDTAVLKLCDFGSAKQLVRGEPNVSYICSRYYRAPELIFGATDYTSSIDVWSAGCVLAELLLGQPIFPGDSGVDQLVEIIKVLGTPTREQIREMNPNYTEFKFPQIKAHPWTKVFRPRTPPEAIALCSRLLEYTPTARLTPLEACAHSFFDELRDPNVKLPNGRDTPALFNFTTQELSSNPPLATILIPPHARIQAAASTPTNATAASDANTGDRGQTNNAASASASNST

IC50 | SMILES
0.5 µM | Cc1cnc(NCCc2cccnc2)nc1/C(C#N)=C1/C=CC=CN1 [Example 3, 4-pyrimidineacetonitrile, 5-methyl-2-[[2-(3-pyridinyl)ethyl]amino]-alpha-2(1H)-pyridinylidene-]
0.2 µM | Cc1cnc(NC2CC2)nc1/C(C#N)=C1/C=CC=CN1 [Example 15, 4-pyrimidineacetonitrile, 2-(cyclopropylamino)-5-methyl-alpha-2-pyridinyl-]
0.17 µM | CCCC(C)Nc1ncc(C)c(/C(C#N)=C2/C=CC=CN2)n1 (stereo not drawn) [Example 25, 4-pyrimidineacetonitrile, 5-methyl-2-[(1-methylbutyl)amino]-alpha-2-pyridinyl-]
1.5 µM | N#CC(=C1C=CNC=C1)c1ccnc(NCCc2cccnc2)n1 [Example 34, 4-pyrimidineacetonitrile, alpha-4-pyridinyl-2-[[2-(3-pyridinyl)ethyl]amino]-]
7.7 µM | CNc1nc(NCCc2cccnc2)nc(/C(C#N)=C2/C=CC=CN2)n1 [Example 49, 1,3,5-triazine-2-acetonitrile, 4-(methylamino)-alpha-2-pyridinyl-6-[[2-(3-pyridinyl)ethyl]amino]-]

What follows are molecules tested against rat JNK3 (Rattus norvegicus, UniProt P49187) (assay: JNK3 in vitro assay (33P incorporation into c-Jun, SPA)). Settings: in vitro potency on rat JNK3; read-out: JUNK3 IC50.
Sequence of rat JNK3 (P49187 whole entry): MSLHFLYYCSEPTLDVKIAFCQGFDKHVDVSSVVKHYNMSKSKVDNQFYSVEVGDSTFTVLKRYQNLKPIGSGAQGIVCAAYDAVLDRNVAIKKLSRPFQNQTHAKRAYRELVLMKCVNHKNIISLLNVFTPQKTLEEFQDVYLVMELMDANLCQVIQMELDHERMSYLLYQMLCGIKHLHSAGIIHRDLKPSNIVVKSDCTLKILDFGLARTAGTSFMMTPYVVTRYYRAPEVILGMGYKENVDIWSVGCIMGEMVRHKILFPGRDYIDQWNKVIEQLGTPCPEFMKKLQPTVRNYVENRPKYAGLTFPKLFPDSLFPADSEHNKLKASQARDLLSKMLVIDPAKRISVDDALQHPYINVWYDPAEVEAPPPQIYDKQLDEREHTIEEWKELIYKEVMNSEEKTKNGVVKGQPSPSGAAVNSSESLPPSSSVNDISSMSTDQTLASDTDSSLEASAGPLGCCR
Assay type: biochemical
Procedure: The compounds of the present invention are inhibitors of JNKs. The phosphorylation of c-jun by JNK2 or JNK3 may be determined by monitoring the incorporation of ^33P into c-jun following the protocol below. The inhibitory activity of the compounds according to formula I, towards c-jun phosphorylation through JNK, is determined by calculating phosphorylation activity in the presence or absence of compounds according to formula I.
JNK3 and/or -2 assays are performed in 96 well MIT plates: incubation of 0.5 μg of recombinant, pre-activated GST-JNK3 or GST-JNK2 with 1 μg of recombinant, biotinylated GST-c-Jun and 2 μM ^33γ-ATP (2 nCi/μl), in the presence or absence of compounds according to formula I and in a reaction volume of 50 μl containing 50 mM Tris-HCl, pH 8.0; 10 mM MgCl2; 1 mM Dithiothreitol, and 100 μM NaVO4. The incubation is performed for 120 min. at R.T and stopped upon addition of 200 μl of a solution containing 250 μg of Streptavidine-coated SPA beads (Amersham, Inc.)*, 5 mM EDTA, 0.1% Triton X-100 and 50 μM ATP, in phosphate saline buffer.
After incubation for 60 minutes at RT, beads are sedimented by centrifugation at 1500×g for 5 minutes, resuspended in 200 μl of PBS containing 5 mM EDTA, 0.1% Triton X-100 and 50 μM ATP and the radioactivity measured in a scintillation β counter, following sedimentation of the beads as described above.

SMILES | IC50
Cc1cnc(NC2CCN(C(=O)OC(C)(C)C)CC2)nc1/C(C#N)=C1/C=CC=CN1 [Example 12, 1-piperidinecarboxylic acid, 4-[[4-[(E)-cyano-2(1H)-pyridinylidenemethyl]-5-methyl-2-pyrimidinyl]amino]-, 1,1-dimethylethyl ester] | 1140 nM
CCN1C=CC=C/C1=C(\C#N)c1nc(NC2CCCC2)ncc1C [Example 14, 4-pyrimidineacetonitrile, 2-(cyclopentylamino)-alpha-(1-ethyl-2(1H)-pyridinylidene)-5-methyl] | 6200 nM
Cc1cnc(Cl)nc1/C(C#N)=C1/C=CC=CN1 [Intermediate 5, 4-pyrimidineacetonitrile, 2-chloro-5-methyl-alpha-2(1H)-pyridinylidene-] | 2350 nM

Other lines, results leading:

IC50 | SMILES
480 nM | Cc1cnc(NCCc2ccc(N(C)C)nc2)nc1/C(C#N)=C1/C=CC=CN1 [Example 4, 4-pyrimidineacetonitrile, 2-[[2-[6-(dimethylamino)-3-pyridinyl]ethyl]amino]-5-methyl-alpha-2(1H)-pyridinylidene-]
70 nM | Cc1cnc(NC2CCCCC2)nc1/C(C#N)=C1/C=CC=CN1 [Example 8, 4-pyrimidineacetonitrile, 2-(cyclohexylamino)-5-methyl-alpha-2-pyridinyl-]
486 nM | Cc1cnc(NCC2CCCCC2)nc1/C(C#N)=C1/C=CC=CN1 [Example 9, 4-pyrimidineacetonitrile, 2-[(cyclohexylmethyl)amino]-5-methyl-alpha-2 pyridinyl-]
106 nM | Cc1cnc(NC2CCC2)nc1/C(C#N)=C1/C=CC=CN1 [Example 11, 4-pyrimidineacetonitrile, 2-(cyclobutylamino)-5-methyl-alpha-2(1H)-pyridinylidene]
299 nM | Cc1cnc(NC2CC2)nc1/C(C#N)=C1/C=CC=CN1 [Example 15, 4-pyrimidineacetonitrile, 2-(cyclopropylamino)-5-methyl-alpha-2-pyridinyl-]
665 nM | Cc1cnc(NC2CCN(Cc3ccccc3)CC2)nc1/C(C#N)=C1/C=CC=CN1 [Example 16, 4-pyrimidineacetonitrile, 5-methyl-2-[[1-(phenylmethyl)-4-piperidinyl]amino]-alpha-2(1H)-pyridinylidene-]
210 nM | Cc1cnc(NCC(C)C)nc1/C(C#N)=C1/C=CC=CN1 [Example 20, 4-pyrimidineacetonitrile, 5-methyl-2-[(2-methylpropyl)amino]-alpha-2(1H)-pyridinylidene-]
310 nM | Cc1cnc(NC(C)C)nc1/C(C#N)=C1/C=CC=CN1 [Example 21, 4-pyrimidineacetonitrile, 5-methyl-2-[(1-methylethyl)amino]-alpha-2(1H)-pyridinylidene-]
740 nM | Cc1cnc(N[C@H]2CCCC[C@@H]2O)nc1/C(C#N)=C1/C=CC=CN1 [Example 22, 4-pyrimidineacetonitrile, 2-[[(1S,2S)-2-hydroxycyclohexyl]amino]-5-methyl-alpha-2(1H)-pyridinylidene-]
